The nature of data set [1]: in vivo. As to conditions: Beagle, dog, po.
The nature of data set [2]: Half-life in Beagle dog at 1 mg/kg, iv measured upto 24 hrs by LC-MS/MS analysis. Type of data set: ADME, organism-based, Canis lupus familiaris. As to conditions: in vivo.
A short description of data set [3]: in vivo. The conditions noted are these: Beagle, dog, po. The source holds these as a separate data set.
A short description of data set [4]: Tmax in Beagle dog at […], po measured upto 24 hrs by LC-MS/MS analysis. The class given is ADME, organism-based, Canis lupus familiaris. The conditions noted are these: in vivo, dose 2.5 mg/kg.
The nature of data set [5]: Tmax in Sprague-Dawley rat at 5 mg/kg, po measured upto 24 hrs by LC-MS/MS analysis. The class given is ADME, organism-based. The conditions noted are these: in vivo.
The nature of data set [6]: Volume of distribution at steady state in Sprague-Dawley rat at 1 mg/kg, iv measured upto 24 hrs by LC-MS/MS analysis. The class given is ADME, organism-based. As to conditions: in vivo, read-out: Vdss.
The nature of data set [7]: Half-life in Sprague-Dawley rat at 1 mg/kg, iv measured upto 24 hrs by LC-MS/MS analysis. Type of data set: ADME, organism-based. As to conditions: in vivo.
A short description of data set [8]: Volume of distribution at steady state in Beagle dog at 1 mg/kg, iv measured upto 24 hrs by LC-MS/MS analysis. The class given is ADME, organism-based, Canis lupus familiaris. The conditions noted are these: in vivo, read-out: Vdss.
Data set [9] can be described thus: in vivo. As to conditions: Sprague-Dawley, rat, po, 5 mg/kg.
A short description of data set [10]: in vivo. The conditions noted are these: Beagle, dog, po. This is another data set of the same source.
The nature of data set [11]: in vivo. The conditions noted are these: Beagle, dog, iv, 1 mg/kg.

One may read the Cmax as the peak of the concentration-time curve. For orientation: half-life means the time needed for the level to fall by half in the phase considered. Read a low half-life as fast loss. The AUC(0-inf) is total exposure, with the tail of the curve extrapolated. A lower AUC(0-inf) goes with less exposure. The term Tmax denotes the time from dosing to the highest level. In general, bioavailability refers to the share of a dose that reaches the circulation, judged against a reference dose that is usually intravenous. A higher bioavailability goes with much systemic uptake. For orientation: clearance means a measure of how efficiently the substance is removed, as volume per time. The molecule `C=CC(=O)N1CCC([C@@H]2CCNc3c(C(N)=O)c(-c4cc(OC)c(C)c(OC)c4)nn32)CC1` returned a Cmax at 24 h in data set [1] of 1250 ng/mL. For the same molecule, the half-life in [2] is 150 min; in [7], 36 min. Also, the AUC(0-inf) at 24 h in data set [3] came out at 2640 ng·h/mL; in [9], 964 ng·h/mL. In addition, in data set [4], the Tmax at 24 h was 25.2 min. Also, the time to peak (Tmax) in data set [5] worked out at 15 min. Moreover, the Vd in data set [6] worked out at 0.9 L/kg; in data set [8], 0.74 L/kg. The molecule further registered a bioavailability at 24 h in data set [10] of 43%. In addition, the clearance at 24 h in [11] was 6.89 mL/min/kg.

The record behind these values is ChEMBL document CHEMBL5247657 (J Med Chem, 2023).
